In US11648258B2, “Method and compounds for inhibiting the MCM complex and their application in cancer treatment” (priority 2012, dated 2023):

Key:
[1] = test system: HepG2 cells (hepatocellular carcinoma); details: HepG2, 48 hrs
[2] = target: T1, hMcm2 and hMcm6 chromatin association (Homo sapiens, UniProt P49736+Q14566); assay: Chromatin binding assay (pre-RC assembly) in HeLa cells; type: cell-based
T1 construct: endogenous in cells; host or cells: HeLa
Protocol: Cells were harvested by trypsinization and washed twice with cold PBS. Extraction buffer (EB; ˜20 μl/10^6 cells) (100 mM KCl, 50 mM HEPES-KOH pH7.5, 2.5 mM MgCl2, 50 mM NaF, 5 mM Na4P2O7, 0.1 mM NaVO3, 0.5% Triton X-100, 1 mM PMSF, 2 μg/ml Pepstatin A, 20 μg/ml Leupeptin, 20 μg/ml Aprotinin, 0.2 mM Pefabloc, 2 mM Benzamidine HCl and 0.2 mg/ml Bacitracin) was added to resuspend and lyse the cells by pippetting. Cells were set on ice for 10 min, and flicked to mix every 2-3 min during the incubation. A volume of 30% ice-cold sucrose equal to EB containing protease inhibitors as in EB was added to the bottom of tube. The tube was spun at top speed in a microcentrifuge for 10 min to separate the chromatin and free proteins. The supernatant was transferred to a new tube and kept on ice. […]
As the component of pre-RC, the MCM complex plays a central role in the licensing of DNA replication. […] In FIGS. 5A and B, asynchronous Hela cells were treated with 17beta-Deacetyltanghinin for 24 hrs and analyzed by the chromatin binding assay (FIG. 5A). Untreated cells (Untreat.), cells treated with the solvent DMSO, and those treated with 0.2, 0.4 or 0.8∝g/ml 17beta-Deacetyltanghinin were analyzed for pre-RC components in the chromatin and supernatant fractions by immunoblotting (FIG. 5A). […] Each cell sample was also analyzed for cell cycle distribution by flow cytometry (FIG. 5B). […]

[3] = test system: L-02 cells; assay: Flow cytometry (cell cycle) in normal L-02 cells; type: cell-based, human; details: 24 hrs
Protocol: Both floating and attached cells were collected and washed once with PBS. Cells were fixed in 70% ethanol for 1 hr to overnight at −20° C., washed thoroughly with PBS, and then stained in 50 μg/ml RNase A, 0.1% Triton X-100, 0.1 mM EDTA (pH 7.4), and 50 μg/ml propidium iodide for 30 min at 4° C. Samples were analyzed with the FACSort instrument (Becton Dickinson).
In FIG. 8A, flow cytometry was performed to analyze the DNA contents in HepG2 and L-02 cells treated with 17beta-Deacetyltanghinin at various concentrations for 24 hrs. In FIG. 8B, Hela cells were treated with 17beta-Deacetyltanghinin for 24 hrs and labeled with Annexin V-Cy3 (Arm. Cy3) for 20 min. Mitoxantrone (MTX), a clinical anticancer drug that can induce apoptosis in cancer cells, was used as a positive control.

[4] = In vivo toxicity assessment in nude mice; details: 5.0 mg/kg intraperitoneal for 20 days
Protocol: (§1) A further set of animal experiments was then conducted with a longer period of time, in which fifteen drug injections at 5.0 mg/kg were performed one week after tumor inoculation when the tumor size reached 0.05-0.1 cm^3. In FIG. 10B, drug injections and tumor size measurements were performed on the days represented by the data points, and the photographs in FIG. 10C were taken on day 20.
In FIG. 11, S refers to solvent-treated mice without tumor inoculation; S+T represents solvent-treated mice with tumor inoculation; DAT refers to 17beta-Deacetyltanghinin-treated mice without tumor inoculation; DAT+T represents 17beta-Deacetyltanghinin-treated mice with tumor inoculation; and P+T refers to Paelitaxel-treated mice with tumor inoculation. Three out of the five mice with intermediate tumor size in each group were selected for physiological parameters examination. The tumors (T) and internal organs including liver (L), heart (H) and kidney (K) were dissected from each mouse.
Furthermore, blood from each mouse was also collected for the tests of the ALT (alanine aminotransferase) and LDH (Lactate dehydrogenase) activities. […] The results of both tests were represented as the values of differently treated mice relative to the untreated ones.

[5] = test system: HeLa cells xenograft tumors; assay: In vivo anticancer activity, nude mice xenograft model; details: for suppression of tumor growth: days 1-3 and 6-10, HeLa xenograft
Protocol: In vivo anticancer activity tests were carried out in the nude mice xenograft model by inoculating nude mice with HeLa cells in both the left and right flanks. After random grouping, nude mice were treated intraperitoneally with 17beta-Deacetyltanghinin or the solvent (30% of propylene glycol in PBS). In the first test, 3 days after tumor inoculation when small tumors started to form, two groups of nude mice were treated on days 1-3 and 6-10 with 3.5 and 7.0 mg-drug/kg-body weight of 17beta-Deacetyltanghinin respectively, and another group of control mice were treated with the same volume of the solvent (FIG. 10A). In FIG. 10A, the tumor volume data represented by the small-size data point symbol linked with thin lines were obtained on the days when both measurement of tumor size and drug injections were performed, and the tumor volume data represented by the large-size data point symbol linked with thick lines were obtained on the days without drug injection. Each tumor size was average of ten tumors in five mice in each group.
as §1

T1 sequence (P49736 2-904 limits assumed): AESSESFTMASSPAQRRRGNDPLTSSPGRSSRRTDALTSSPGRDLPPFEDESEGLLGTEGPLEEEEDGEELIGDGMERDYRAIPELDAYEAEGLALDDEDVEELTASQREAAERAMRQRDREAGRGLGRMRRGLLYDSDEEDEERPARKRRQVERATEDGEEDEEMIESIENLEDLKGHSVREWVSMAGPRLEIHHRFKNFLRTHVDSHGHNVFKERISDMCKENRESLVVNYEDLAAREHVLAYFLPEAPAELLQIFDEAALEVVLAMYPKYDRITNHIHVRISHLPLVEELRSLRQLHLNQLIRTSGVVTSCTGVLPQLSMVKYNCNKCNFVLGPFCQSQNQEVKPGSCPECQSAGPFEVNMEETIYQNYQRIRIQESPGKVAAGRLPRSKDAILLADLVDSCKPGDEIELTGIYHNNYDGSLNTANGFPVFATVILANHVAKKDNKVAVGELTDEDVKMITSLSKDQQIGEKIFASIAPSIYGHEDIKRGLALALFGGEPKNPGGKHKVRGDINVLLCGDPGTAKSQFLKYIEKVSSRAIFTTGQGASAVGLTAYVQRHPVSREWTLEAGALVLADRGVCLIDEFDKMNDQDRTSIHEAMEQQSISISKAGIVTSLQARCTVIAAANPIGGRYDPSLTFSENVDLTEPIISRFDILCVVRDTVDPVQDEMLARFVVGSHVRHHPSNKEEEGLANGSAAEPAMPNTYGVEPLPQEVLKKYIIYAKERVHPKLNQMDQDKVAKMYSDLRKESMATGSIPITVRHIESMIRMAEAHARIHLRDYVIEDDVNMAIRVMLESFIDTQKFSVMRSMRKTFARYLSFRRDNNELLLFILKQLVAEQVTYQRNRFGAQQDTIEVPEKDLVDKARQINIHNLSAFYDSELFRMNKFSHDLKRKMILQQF
T1 sequence (Q14566 whole entry): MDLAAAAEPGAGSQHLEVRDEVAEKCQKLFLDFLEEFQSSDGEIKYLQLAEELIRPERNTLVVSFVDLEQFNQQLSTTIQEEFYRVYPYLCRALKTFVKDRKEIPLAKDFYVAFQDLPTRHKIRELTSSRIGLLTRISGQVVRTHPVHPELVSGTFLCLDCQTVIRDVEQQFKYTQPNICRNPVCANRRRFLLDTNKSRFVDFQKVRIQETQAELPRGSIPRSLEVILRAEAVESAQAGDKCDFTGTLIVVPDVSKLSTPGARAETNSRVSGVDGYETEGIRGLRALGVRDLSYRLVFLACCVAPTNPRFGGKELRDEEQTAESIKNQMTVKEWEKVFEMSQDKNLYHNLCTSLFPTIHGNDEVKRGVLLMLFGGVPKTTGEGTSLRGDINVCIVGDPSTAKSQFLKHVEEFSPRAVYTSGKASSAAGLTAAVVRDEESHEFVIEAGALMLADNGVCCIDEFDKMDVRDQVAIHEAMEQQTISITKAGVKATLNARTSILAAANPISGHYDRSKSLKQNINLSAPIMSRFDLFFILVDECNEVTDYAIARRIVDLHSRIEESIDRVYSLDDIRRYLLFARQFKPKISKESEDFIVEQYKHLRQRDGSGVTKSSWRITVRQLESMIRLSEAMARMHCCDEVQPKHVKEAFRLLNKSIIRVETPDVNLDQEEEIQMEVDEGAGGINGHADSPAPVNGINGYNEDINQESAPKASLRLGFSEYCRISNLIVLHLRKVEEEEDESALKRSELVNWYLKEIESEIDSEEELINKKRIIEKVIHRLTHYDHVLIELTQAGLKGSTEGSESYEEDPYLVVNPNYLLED

COC1C(O)[C@H](O[C@H]2CC[C@]3(C)C4CC[C@]5(C)[C@@H](C6=CC(=O)OC6)CC[C@]5(O)[C@@]45O[C@H]5C[C@@H]3C2)OC(C)[C@@H]1O (stereo partly drawn) [17beta-Deacetyltanghinin, 3β-O-(3-O-methyl-6-deoxy-α-L-glucopyranosyl)-7β,8β-epoxy-14β-hydroxy-card-20(22)-enolide]
inhibition of proliferation, direct microscopy of cell density and morphology [1]: efficiently inhibit the proliferation | MCM loading onto chromatin ([2]; HeLa cells released from nocodazole M phase arrest): largely prevented | hMcm2 and hMcm6 in chromatin fractions ([2]; asynchronous HeLa cells, 24 hrs, 0.2, 0.4 or 0.8 ∝g/ml): significantly reduced | cell cycle effect in normal cells [3]: mostly arrested in G1 phase | appearance of organs (liver, heart, kidney) [4]: All organs looked normal | body weight loss [4]: no obvious weight loss | organ weights relative to body weights [4]: not significantly changed | blood ALT (printed ATL) or LDH level ([4]; relative to untreated mice): did not induce significant increase | suppression of tumor growth ([5]; 3.5 mg/kg intraperitoneally): 70% | suppression of tumor growth ([5]; 7.0 mg/kg intraperitoneally): 90% | tumors smaller than in solvent-treated control mice ([5]; fifteen injections at 5.0 mg/kg, started one week after inoculation): over 80%
